Measured values published in patent US20140073643A1, “TREATMENT OF JAK2-MEDIATED CONDITIONS” (YM BIOSCIENCES AUSTRALIA PTY LTD, priority 2010, published 2014).
Marks after values point to notes of the source that are not given here.

Assays:
[1] = tested on: patients with high- or intermediate-risk primary myelofibrosis (PMF) and post-PV or post-essential thrombocythemia (ET) myelofibrosis; assay: Phase I/II clinical trial of CYT387: anemia response / hemoglobin; format: in vivo, human
From the text: By “anemia response” is meant an increase in the patient's hemoglobin level or a patient who was transfusion dependent becoming transfusion independent. Desirably, a minimum increase in hemoglobin of 2.0 g/dL lasting a minimum of 8 weeks is achieved, which is the level of improvement specified in the International Working Group (IWG) consensus criteria. However, smaller, but still medically significant, increases in hemoglobin are also considered to be within the term “anemia response”.
A clinical trial was designed to assess the safety, tolerability, and pharmacokinetic behavior of CYT387 in a Phase I dose-escalation study in patients with high- or intermediate-risk primary myelofibrosis (PMF) and post-PV or post-essential thrombocythemia (ET) myelofibrosis. The secondary objective was evaluation of CYT387 's benefit to myelofibrosis patients. […] For patients achieving less than a complete remission after 3 cycles of treatment, escalation was permitted to the highest tolerated dose in the absence of disease progression or unacceptable toxicity. Once dose-limiting toxicity (DLT) was identified, a dose-confirmation cohort initiated treatment at the maximum tolerated dose (MTD) and/or a lower clinically effective dose.
(§1) Results were obtained for 36 subjects enrolled in the 120 patient Phase I/II trial for which recruitment is ongoing. Of these, 18 patients were from the dose escalation phase, and 18 patients were from the subsequent dose confirmation phase. Twenty subjects (56%) were red cell transfusion-dependent at study entry. Prior treatment included other JAK inhibitors in ten patients (nine and one subjects with INCB018424 and TG101348, respectively) and pomalidomide in nine patients. The median treatment duration at publication was 15 weeks (range 4-38).
Anemia Response: The total anemia response rate was 63%. Of 22 subjects who were evaluable for anemia response (baseline Hgb<10 g/dL or red cell transfusion-dependent), nine subjects (41%) had achieved “Clinical Improvement (CI)” as per the International Working Group for Myeloproliferative Neoplasms Research and Treatment (IWG-MRT) criteria, including two of four subjects who were previously treated with INCB018424. An additional five subjects experienced a >50% reduction in transfusion requirement.
There is also a line for “anemia evaluable” patients which are patients who are considered anemic at baseline by IWG criteria. That is they have a baseline hgb of <10 g/dL or are transfusion dependent at baseline.

[2] = tested on: patients with high- or intermediate-risk primary myelofibrosis (PMF) and post-PV or post-essential thrombocythemia (ET) myelofibrosis; assay: Phase I/II clinical trial of CYT387: constitutional symptoms; format: in vivo, human; conditions: at last follow up
Protocol: (§2) A clinical trial was designed to assess the safety, tolerability, and pharmacokinetic behavior of CYT387 in a Phase I dose-escalation study in patients with high- or intermediate-risk primary myelofibrosis (PMF) and post-PV or post-essential thrombocythemia (ET) myelofibrosis. The secondary objective was evaluation of CYT387 's benefit to myelofibrosis patients. CYT387 was administered orally (in a capsule without excipients) once daily in 28-day cycles. For patients achieving less than a complete remission after 3 cycles of treatment, escalation was permitted to the highest tolerated dose in the absence of disease progression or unacceptable toxicity. Once dose-limiting toxicity (DLT) was identified, a dose-confirmation cohort initiated treatment at the maximum tolerated dose (MTD) and/or a lower clinically effective dose.
as §1
Constitutional symptoms: The proportion of patients with the following symptoms at baseline was as follows: fatigue (97%), pruritus (22%), night sweats (38%), cough (13%), bone pain (28%), and fever (16%). At last follow up, improvement (complete resolution; CR) in these symptoms was reported by 68% (16% CR), 86% (57% CR), 83% (75% CR), 75% (50% CR), 78% (44% CR), and 100% (100% CR), respectively.

[3] = tested on: patients with high- or intermediate-risk primary myelofibrosis (PMF) and post-PV or post-essential thrombocythemia (ET) myelofibrosis; assay: Phase I/II clinical trial of CYT387: spleen response; format: in vivo, human
From the text: By “spleen response” is meant a reduction in the size of the patient's spleen as assessed by either palpation of a previously palpable spleen during physical exam or by diagnostic imaging. The IWG consensus criteria specifies that there be either a minimum 50% reduction in palpable splenomegaly (spleen enlargement) of a spleen that is at least 10 cm at baseline (prior to treatment) or of a spleen that is palpable at more than 5 cm at baseline becomes not palpable. However, smaller reductions are also considered to be within the term “spleen response”.
as §2, §1
Spleen Size Reduction: Twenty nine (97%) of the 30 evaluable subjects who had splenomegaly at baseline (median 20 cm; range 10-32 cm) had some degree of spleen size reduction (median 9 cm; range 2-18 cm). Eleven (37%) patients have achieved a minimum 50% decrease in palpable spleen size, thus qualifying them for a CI per IWG-MRT criteria, including three out of eight subjects (38%) who were previously treated with INCB018424.

[4] = tested on: patients with high- or intermediate-risk primary myelofibrosis (PMF) and post-PV or post-essential thrombocythemia (ET) myelofibrosis; assay: Phase I/II clinical trial of CYT387: toxicity; format: in vivo
Protocol: as §2, §1
To date, 36 subjects were evaluable for toxicity. At the highest dose level (400 mg/day), two of six subjects experienced dose limiting toxicity (DLT) (one each with asymptomatic grade three hyperlipasemia and grade three headache that were reversible upon holding drug); consequently, the maximum tolerated dose (MTD) was declared at 300 mg/day. In the dose-confirmation phase, subjects were started at one of two dose levels that were deemed clinically effective: 150 mg/day (n=15) and 300 mg/day (n=3). Thirty-five subjects were on active therapy at publication of the abstract: 100 mg/day (n=2), 150 mg/day (n=20), 300 mg/day (n=10), and 400 mg/day (n=3).

[5] = administered once a day; cited from earlier work
[6] = Previous Treatment with IMids (Pomalidomide, Thalidomide, Revlimid)
[7] = Previous Treatment with INCB018424
[8] = Previous Treatment with TG-101348
[9] = Previous Treatment with Unspecified JAK2
[10] = Previous Treatment with any JAK2
[11] = interim response by diagnosis: PET
[12] = interim response by diagnosis: PMF
[13] = interim response by diagnosis: PPV
[14] = 30 evaluable subjects with splenomegaly at baseline

N#CCNC(=O)c1ccc(-c2ccnc(Nc3ccc(N4CCOCC4)cc3)n2)cc1 [CYT387, N-(cyanomethyl)-4-[2-[[4-(4-morpholinyl)phenyl]amino]-4-pyrimidinyl]-benzamide]
effect on hemoglobin in transfusion dependent patients who respond (Tx responders) ([1]; FIG. 2, no longer receiving RBC transfusions): modest initial increase in hemoglobin that is sustained | Anemia response: % responders ([1]; Initial Dose 150 BID): 33%* | Anemia response: Responders (number) ([1]; Initial Dose 150 BID, 21 evaluable pts): 7 | Anemia response: % responders ([1]; Initial Dose 150 QD): 50% | Anemia response: Responders (number) ([1]; Initial Dose 150 QD, 32 evaluable pts): 16 | Anemia response: % responders ([1]; Initial Dose 300 QD): 54% | Anemia response: Responders (number) ([1]; Initial Dose 300 QD, 39 evaluable pts): 21 | Responders, Anemia [1, 6]: Anemia: 9/14 = 64.3% | Responders, Anemia [1, 7]: Anemia: 4/7 = 57.1% | Responders, Anemia [1, 8]: Anemia: 3/4 = 75% | Responders, Anemia [1, 9]: Anemia: 2/3 = 66.7% | Responders, Anemia [1, 10]: Anemia: 9/14 = 64.3% | effect on hemoglobin levels ([1]; first 60 patients, FIG. 1 and 2): clear and sustained improvement in hemoglobin levels | Anemia Response/Evaluable [1, 11]: 10/18 (55.6%) | Anemia Response/Evaluable [1, 12]: 30/66 (45.5%) | Anemia Response/Evaluable [1, 13]: 6/14 (42.9%) | subjects achieving Clinical Improvement (CI) in anemia per IWG-MRT criteria ([1]; nine of 22 evaluable subjects (baseline Hgb<10 g/dL or red cell transfusion-dependent)): 41% | additional subjects with >50% reduction in transfusion requirement ([1]; of 22 evaluable subjects): five | total anemia response rate ([1]; oral once daily, 28-day cycles, 22 subjects evaluable for anemia response): 63% | subjects achieving anemia CI per IWG-MRT among those previously treated with INCB018424 ([1]; previously treated with INCB018424): two of four | complete resolution (CR) of bone pain [2]: 44% | complete resolution (CR) of cough [2]: 50% | complete resolution (CR) of fatigue [2]: 16% | complete resolution (CR) of fever [2]: 100% | complete resolution (CR) of night sweats [2]: 75% | complete resolution (CR) of pruritus [2]: 57% | improvement in bone pain [2]: 78% | improvement in cough [2]: 75% | improvement in fever [2]: 100% | improvement in night sweats [2]: 83% | improvement in pruritus [2]: 86% | improvement in fatigue ([2]; patients with symptom at baseline): 68% | subjects with some degree of spleen size reduction ([3]; 29 of 30 evaluable subjects with splenomegaly at baseline (median 20 cm)): 97% | spleen size reduction, median [3, 14]: 9 cm | spleen size reduction, range [3, 14]: 2-18 cm | Responders, Spleen [3, 6]: Spleen: 6/11 = 54.5% | Responders, Spleen [3, 7]: Spleen: 3/10 = 30% | Responders, Spleen [3, 8]: Spleen: 1/4 = 25% | Responders, Spleen [3, 9]: Spleen: 1/3 = 33.3% | Responders, Spleen [3, 10]: Spleen: 5/17 = 29.4% | patients with minimum 50% decrease in palpable spleen size (CI per IWG-MRT) ([3]; eleven of 30 evaluable): 37% | Spleen Response/Evaluable [3, 11]: 7/19 (36.8%) | Spleen Response/Evaluable [3, 12]: 22/82 (26.8%) | Spleen Response/Evaluable [3, 13]: 11/33 (33.3%) | patients with minimum 50% decrease in palpable spleen size (CI per IWG-MRT), previously treated with INCB018424 ([3]; three out of eight subjects previously treated with INCB018424): 38% | Grade 3/4 thrombocytopenia ([4]; human, in vivo): 22% | Treatment-emergent grade 3/4 neutropenia ([4]; human, in vivo): not observed | grade 4 non-hematological toxicities ([4]; human, in vivo): No grade 4 non-hematological toxicities were observed | subjects experiencing dose limiting toxicity (DLT) ([4]; human, in vivo): two of six | subjects with first-dose effect (grade 1 lightheadedness and hypotension) ([4]; human, in vivo): 36% | time to resolution of first-dose effect ([4]; human, in vivo): 3 to 4 h | tolerability ([4]; human, in vivo): well tolerated | treatment-emergent grade 3 anemia ([4]; human, in vivo): 3% | maximum tolerated dose (MTD) ([4]; oral once daily): 300 mg/day

Cc1cnc(Nc2ccc(OCCN3CCCC3)cc2)nc1Nc1cccc(S(=O)(=O)NC(C)(C)C)c1 [TG101348]
maximum tolerated dose (MTD) [5]: 680 mg/day
